Data reported in patent publication US20250388605A1, “HETEROBIFUNCTIONAL COMPOUNDS AND METHODS OF TREATING DISEASE” (Halda Therapeutics OpCo, Inc., priority 2022, published 2025).

What was measured:
T47D cells = experiment: Cellular Growth Inhibition Assay for T47D Cells (CellTiter-Glo); type: cell-based, human; conditions: 72 hours
In short: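 GI50 values derive from four-parameter regression of CellTiter-Glo 2.0 luminescence, using zero luminescence as baseline. Human breast cancer T47D cells (3000/well; DMEM, 10% FBS, 0.2 units/mL insulin) were exposed for 72 h to compound dilutions at 0.5% DMSO, with dosing starting 24 h after seeding.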

[1] = tested on: T-Rex 293 cell line SC3 cells having increased expression of androgen receptor protein due to exposure to doxycycline; experiment: Cellular growth inhibition, T-Rex 293 SC3 cells with doxycycline (increased androgen receptor expression), CellTiter-Glo; type: cell-based; conditions: T-Rex 293 SC3 cells with 10 ng/mL doxycycline (increased androgen receptor expression), 72 hours, CellTiter-Glo 2.0
In short: (§1)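 Growth inhibition is measured in an inducible AR-expressing T-Rex 293 clone, SC3, cultured with or without 10 ng/mL doxycycline in hormone-depleted medium. Test compounds are applied for 72 hours. GI50 values derive from CellTiter-Glo 2.0 signal fitted by four-parameter regression.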

VCaP cells = experiment: Cellular growth inhibition assay for VCaP cells, CellTiter-Glo; type: cell-based, human; conditions: 72 hours
In short: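 GI50 values come from four-parameter curve fits of luminescence data normalized to a zero baseline. Compound, in medium with 0.5% DMSO, was added one day after plating and left for 72 h before CellTiter-Glo 2.0 addition.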

[2] = tested on: T-Rex 293 cell line SC3 cells lacking increased expression of androgen receptor protein; experiment: Cellular growth inhibition, T-Rex 293 SC3 cells without doxycycline (no increased androgen receptor expression), CellTiter-Glo; type: cell-based; conditions: T-Rex 293 SC3 cells not exposed to doxycycline (no increased androgen receptor expression), 72 hours
In short: as §1

Row | GI50 (T47D cells) [nM] | GI50 (VCaP cells) [nM] | GI50 (T47D cells; Homo sapiens) [nM] | GI50 (VCaP cells; Homo sapiens) [nM] | SMILES | GI50 [1] [nM] | GI50 [2] [nM]
1 | 500 to 1500 | < 500 |  |  | Cn1cc(-c2ccccc2Oc2cccc(OCCN3CCN(c4ncc(C(=O)N[C@H]5C(C)(C)[C@H](Oc6ccc(C#N)c(Cl)c6)C5(C)C)cn4)CC3)c2F)c2cc[nH]c2c1=O [Compound I-115] | < 500 | < 500
2 | 500 to 1500 | < 500 |  |  | Cn1cc(-c2ccccc2Oc2cccc(OCCC3CCN(c4ncc(C(=O)N[C@H]5C(C)(C)[C@H](Oc6ccc(C#N)c(Cl)c6)C5(C)C)cn4)CC3)c2F)c2cc[nH]c2c1=O [Compound I-117] | < 500 | > 3000
3 |  |  | 500 to 1500 | > 3000 | CC(C)c1ccc(Oc2cccc(N3CC(N4CCN(c5ncc(C(=O)N[C@H]6C(C)(C)[C@H](Oc7ccc(C#N)c(Cl)c7)C6(C)C)cn5)CC4)C3)c2)c(-c2cn(C)c(=O)c3[nH]ccc23)c1 [Compound I-122, N-[3-(3-chloro-4-cyano-phenoxy)-2,2,4,4-tetramethyl-cyclobutyl]-2-[4-[1-[3-[4-isopropyl-2-(6-methyl-7-oxo-1H-pyrrolo[2,3-c]pyridin-4-yl)phenoxy]phenyl]azetidin-3-yl]piperazin-1-yl]pyrimidine-5-carboxamide] | < 500 | > 3000
4 |  |  | 500 to 1500 | > 3000 | CC(C)c1ccc(Oc2cccc(N3CC(N4CCN(c5ncc(C(=O)N[C@H]6C(C)(C)[C@H](Oc7ccc(C#N)c(Cl)c7)C6(C)C)cn5)CC4)C3)c2F)c(-c2cn(C)c(=O)c3[nH]ccc23)c1 [Compound I-123] | < 500 | > 3000
5 |  |  | 1500 to 3000 | < 500 | CC(C)c1ccc(Oc2cccc(CCCN3CCN(c4ncc(C(=O)NC5C(C)(C)C(Oc6ccc(C#N)c(Cl)c6)C5(C)C)cn4)CC3)c2)c(-c2cn(C)c(=O)c3[nH]ccc23)c1 (stereo not shown) [Compound I-125, N-[3-(3-chloro-4-cyano-phenoxy)-2,2,4,4-tetramethyl-cyclobutyl]-2-[4-[3-[3-[4-isopropyl-2-(6-methyl-7-oxo-1H-pyrrolo[2,3-c]pyridin-4-yl)phenoxy]phenyl]propyl]piperazin-1-yl]pyrimidine-5-carboxamide] | < 500 | > 3000
6 | < 500 | < 500 |  |  | CCS(=O)(=O)Nc1ccc(Oc2cccc(C3CC(N(C)C4CCN(c5ncc(C(=O)N[C@H]6C(C)(C)[C@H](Oc7ccc(C#N)c(Cl)c7)C6(C)C)cn5)CC4)C3)c2)c(-c2cn(C)c(=O)c3[nH]ccc23)c1 (stereo partly shown) [Compound I-129] | < 500 | < 500
7 |  |  | 500 to 1500 | < 500 | Cn1cc(-c2ccccc2Oc2cccc(CCCN3CCN(c4ncc(C(=O)NC5C(C)(C)C(Oc6ccc(C#N)c(Cl)c6)C5(C)C)cn4)CC3)c2)c2cc[nH]c2c1=O (stereo not shown) [Compound I-134, N-[3-(3-chloro-4-cyano-phenoxy)-2,2,4,4-tetramethyl-cyclobutyl]-2-[4-[3-[3-[2-(6-methyl-7-oxo-1H-pyrrolo[2,3-c]pyridin-4-yl)phenoxy]phenyl]propyl]piperazin-1-yl]pyrimidine-5-carboxamide] | < 500 | 500 to 1500
8 | < 500 | < 500 |  |  | Cn1cc(-c2ccccc2Oc2cccc(CCOC3CCN(c4ncc(C(=O)N[C@H]5C(C)(C)[C@H](Oc6ccc(C#N)c(Cl)c6)C5(C)C)cn4)CC3)c2)c2cc[nH]c2c1=O [Compound I-146] | < 500 | > 3000
9 | 500 to 1500 | < 500 |  |  | CC(C)c1ccc(Oc2cccc(CCOC3CCN(c4ncc(C(=O)N[C@H]5C(C)(C)[C@H](Oc6ccc(C#N)c(Cl)c6)C5(C)C)cn4)CC3)c2F)c(-c2cn(C)c(=O)c3[nH]ccc23)c1 [Compound I-148] | < 500 | > 3000
10 | 500 to 1500 | < 500 |  |  | Cn1cc(-c2ccccc2Oc2cccc(CCOC3CCN(c4ncc(C(=O)N[C@H]5C(C)(C)[C@H](Oc6ccc(C#N)c(Cl)c6)C5(C)C)cn4)CC3)c2F)c2cc[nH]c2c1=O [Compound I-149] | < 500 | < 500
11 |  |  | < 500 | < 500 | CCS(=O)(=O)Nc1ccc(Oc2cccc(C3CC(C4CCN(c5ncc(C(=O)N[C@H]6C(C)(C)[C@H](Oc7ccc(C#N)c(Cl)c7)C6(C)C)cn5)CC4)C3)c2)c(-c2cn(C)c(=O)c3[nH]ccc23)c1 (stereo partly shown) [Compound I-157] | < 500 | > 3000
12 |  |  | < 500 | < 500 | CCS(=O)(=O)Nc1ccc(Oc2cccc(COC3CCN(c4ncc(C(=O)N[C@H]5C(C)(C)[C@H](Oc6ccc(C#N)c(Cl)c6)C5(C)C)cn4)CC3)c2F)c(-c2cn(C)c(=O)c3[nH]ccc23)c1 [Compound I-164] | < 500 | > 3000
13 |  |  | < 500 | < 500 | CCS(=O)(=O)Nc1ccc(Oc2cccc(CCC3CCN(c4ncc(C(=O)N[C@H]5C(C)(C)[C@H](Oc6ccc(C#N)c(Cl)c6)C5(C)C)cn4)CC3)c2F)c(-c2cn(C)c(=O)c3[nH]ccc23)c1 [Compound I-165] | < 500 | > 3000
14 | 500 to 1500 | < 500 |  |  | Cn1cc(-c2cc(NS(=O)(=O)C3CC3)ccc2Oc2cccc(N3CC(CC4CCN(c5ncc(C(=O)N[C@H]6C(C)(C)[C@H](Oc7ccc(C#N)c(Cl)c7)C6(C)C)cn5)CC4)C3)c2F)c2cc[nH]c2c1=O [Compound I-170] | < 500 | > 3000
15 | < 500 | > 3000 |  |  | Cn1cc(-c2cc(NS(=O)(=O)C3CC3)ccc2Oc2cccc(N3CC(OC4CCN(c5ncc(C(=O)N[C@H]6C(C)(C)[C@H](Oc7ccc(C#N)c(Cl)c7)C6(C)C)cn5)CC4)C3)c2F)c2cc[nH]c2c1=O [Compound I-171] | < 500 | > 3000
16 | < 500 | < 500 |  |  | CCS(=O)(=O)Nc1ccc(Oc2cccc(N3CC(N(C)C4CCN(c5ncc(C(=O)N[C@H]6C(C)(C)[C@H](Oc7ccc(C#N)c(Cl)c7)C6(C)C)cn5)CC4)C3)c2F)c(-c2cn(C)c(=O)c3[nH]ccc23)c1 [Compound I-178] | < 500 | < 500
17 | 500 to 1500 | > 3000 |  |  | CC(C)c1ccc(Oc2cccc(OCCN3CCN(c4ncc(C(=O)N[C@H]5C(C)(C)[C@H](Oc6ccc(C#N)c(Cl)c6)C5(C)C)cn4)CC3)c2F)c(-c2cn(C)c(=O)c3[nH]ccc23)c1 [Compound I-179] | < 500 | > 3000
18 |  |  | < 500 | < 500 | CCS(=O)(=O)Nc1ccc(Oc2cccc(C3CC(N4CCN(c5ncc(C(=O)N[C@H]6C(C)(C)[C@H](Oc7ccc(C#N)c(Cl)c7)C6(C)C)cn5)CC4)C3)c2)c(-c2cn(C)c(=O)c3[nH]ccc23)c1 (stereo partly shown) [Compound I-180] | < 500 | > 3000
19 | < 500 | < 500 |  |  | CCS(=O)(=O)Nc1ccc(Oc2cccc(N3CC(OC4CCN(c5ncc(C(=O)N[C@H]6C(C)(C)[C@H](Oc7ccc(C#N)c(Cl)c7)C6(C)C)cn5)CC4)C3)c2)c(-c2cn(C)c(=O)c3[nH]ccc23)c1 [Compound I-181] | < 500 | > 3000
20 |  |  | < 500 | < 500 | CCS(=O)(=O)Nc1ccc(Oc2cccc(N3CCC(C4CN(c5ncc(C(=O)N[C@H]6C(C)(C)[C@H](Oc7ccc(C#N)c(Cl)c7)C6(C)C)cn5)C4)CC3)c2)c(-c2cn(C)c(=O)c3[nH]ccc23)c1 [Compound I-182] | < 500 | > 3000
21 |  |  | < 500 | > 3000 | Cn1cc(-c2cc(S(C)(=O)=O)ccc2Oc2cccc(N3CC(CC4CCN(c5ncc(C(=O)NC6C(C)(C)C(Oc7ccc(C#N)c(Cl)c7)C6(C)C)cn5)CC4)C3)c2F)c2cc[nH]c2c1=O (stereo not shown) [Compound I-189, N-[3-(3-chloro-4-cyano-phenoxy)-2,2,4,4-tetramethyl-cyclobutyl]-2-[4-[[1-[2-fluoro-3-[2-(6-methyl-7-oxo-1H-pyrrolo[2,3-c]pyridin-4-yl)-4-methylsulfonyl-phenoxy]phenyl]azetidin-3-yl]methyl]-1-piperidyl]pyrimidine-5-carboxamide] | < 500 | > 3000
22 | < 500 | < 500 |  |  | Cn1cc(-c2cc(S(C)(=O)=O)ccc2Oc2cccc(N3CC(OC4CCN(c5ncc(C(=O)N[C@H]6C(C)(C)[C@H](Oc7ccc(C#N)c(Cl)c7)C6(C)C)cn5)CC4)C3)c2F)c2cc[nH]c2c1=O [Compound I-191] | < 500 | < 500
23 | < 500 | < 500 |  |  | CC(C)N(CCOC1CCN(c2ncc(C(=O)N[C@H]3C(C)(C)[C@H](Oc4ccc(C#N)c(Cl)c4)C3(C)C)cn2)CC1)c1cccc(Oc2ccc(C(C)(C)O)cc2-c2cn(C)c(=O)c3[nH]ccc23)c1F [Compound I-209] | < 500 | < 500
24 | 500 to 1500 | < 500 |  |  | Cn1cc(-c2cc(C(C)(C)O)ccc2Oc2cccc(OCCC3CC4(C3)CN(c3ncc(C(=O)N[C@H]5C(C)(C)[C@H](Oc6ccc(C#N)c(Cl)c6)C5(C)C)cn3)C4)c2F)c2cc[nH]c2c1=O [Compound I-210] | < 500 | < 500
25 | < 500 | < 500 |  |  | CN(C1CCN(c2ncc(C(=O)N[C@H]3C(C)(C)[C@H](Oc4ccc(C#N)c(Cl)c4)C3(C)C)cn2)CC1)C1CN(c2cccc(Oc3ccc(C(C)(C)O)cc3-c3cn(C)c(=O)c4[nH]ccc34)c2F)C1 [Compound I-230] | < 500 | 500 to 1500
